From ChEMBL document CHEMBL4402556, “Mycobacterium tuberculosis Decaprenylphosphoryl-β-d-ribose Oxidase Inhibitors: Expeditious Reconstruction of Suboptimal Hits into a Series with Potent in Vivo Activity” (J Med Chem, 2020)
In brackets after ≈: the same amount, converted by molar mass.

What was measured:
[1] = test system: Mycobacterium tuberculosis; assay: Antitubercular activity against wild type Mycobacterium tuberculosis H37Rv ATCC 25618 assessed as bacterial growth inhibition measured after 6 days by resazurin assay; assay type: functional; details: H37Rv ATCC 25618, 144 h
[2] = Inhibition of Mycobacterium tuberculosis DprE1 expressed in Escherichia coli BL21 (DE3) using farnesylphosphoryl-beta-D-ribose as substrate
[3] = Kinetic aqueous solubility of the compound in phosphate buffer saline at pH 7.4 after 1 hr by CLND method; assay type: physicochemical; details: phosphate buffered saline, read-out: Kinetic_solubility
[4] = test system: Mycobacterium tuberculosis; assay: Antibacterial activity against Mycobacterium tuberculosis transfected with pMV261 vector expressing DprE1 assessed as bacterial growth inhibition; assay type: functional
[5] = Volume of distribution at steady state in CD-1 mouse at 1 mg/kg, iv administered as single dose measured up to 24 hrs by LC-MS/MS analysis; assay type: ADME, organism-based; details: in vivo, read-out: Vdss
[6] = test system: Mycobacterium tuberculosis; assay: Antitubercular activity against Mycobacterium tuberculosis H37Rv infected in po dosed C57BL/6 mouse model of acute infection assessed as reduction in mycobacterial burden in lung administration for 8 consecutive days starting from day 1 post-infection and measured after 24 hrs post-last dose; assay type: functional
[7] = test system: Mycobacterium tuberculosis; assay: Antitubercular activity against wild type Mycobacterium tuberculosis H37Rv ATCC 25618 transfected with pATB45luc plasmid expressing luciferase infected in human THP1 cells assessed as reduction in bacterial growth after 4 days by BrightGlo luciferase assay; assay type: functional; details: H37Rv ATCC 25618, 96 h
[8] = Oral bioavailability in CD-1 mouse at 5 mg/kg administered as single dose measured up to 24 hrs by LC-MS/MS analysis; assay type: ADME, organism-based; details: in vivo
[9] = Clearance in CD-1 mouse at 1 mg/kg, iv administered as single dose measured up to 24 hrs by LC-MS/MS analysis; assay type: ADME, organism-based; details: in vivo
[10] = Half life in CD-1 mouse at 1 mg/kg, iv administered as single dose measured up to 24 hrs by LC-MS/MS analysis; assay type: ADME, organism-based; details: in vivo
[11] = test system: HepG2; assay: Cytotoxicity against human HepG2 cells assessed as reduction in cell viability measured after 48 hrs by CellTiter-Glo assay; assay type: cell-based; details: HepG2, 48 h
[12] = Solubility of the compound in FaSSIF; assay type: physicochemical
[13] = test system: Staphylococcus aureus; assay: Antibacterial activity against Staphylococcus aureus assessed as bacterial growth inhibition; assay type: functional
[14] = test system: Escherichia coli; assay: Antibacterial activity against Escherichia coli assessed as bacterial growth inhibition; assay type: functional

SMILES	MIC90 [1] [µM]	pIC50 [2]	further results
O=C(C1CCN(c2cc(N3CCOCC3)[nH]c(=O)n2)CC1)N1CCC(Cc2ccccc2)CC1	3 (≈ 1.4 µg/mL)	7.4	–
Cc1ccc(OC2CCN(C(=O)C3CCN(c4cc(N5CCOCC5)ncn4)CC3)CC2)nc1	16 (≈ 7.47 µg/mL)	6.2	–
O=C(C1CCN(c2ccncn2)CC1)N1CCC(Cc2ccccc2)CC1	> 125	4.8	–
O=C(C1CCN(c2ncnc(N3CCOCC3)c2F)CC1)N1CCC(Cc2ccccc2)CC1	1.3 (≈ 0.608 µg/mL)	7.2	–
O=C(C1CCN(c2cc(N3CCOCC3)ncn2)CC1)N1CCC(Oc2ccccc2)CC1	2 (≈ 0.903 µg/mL)	8.1	–
CC1CCN(C(=O)C2CCN(c3nnc(-n4cccc4)s3)CC2)CC1	20.8 (≈ 7.48 µg/mL)	6.3	solubility kinetic at 1 h [3]: 328 µM (≈ 118 µg/mL)
O=C(C1CCN(c2cc(N3CCOCC3)ncn2)CC1)N1CCC(Cc2ccc(F)cc2)CC1	0.6 (≈ 0.281 µg/mL)	7.6	MIC90 [4]: 15 µM (≈ 7.01 µg/mL); Vd [5]: 1.3 L/kg; ED99 [6]: 30 mg/kg; MIC90 [7]: 0.21 µM (≈ 0.0982 µg/mL); bioavailability [8]: 100%; solubility kinetic at 1 h [3]: 160 µM (≈ 74.8 µg/mL); clearance [9]: 38.9 mL/min/kg; half-life [10]: 27 min; IC50 [11]: 50.1 µM; solubility [12]: 40 µM (≈ 18.7 µg/mL)
O=C(C1CCN(c2cc(N3CCOCC3)ncn2)CC1)N1CCC(Nc2ccccc2)CC1	10 (≈ 4.51 µg/mL)	6.4	–
c1nc(N2CCCCC2)cc(N2CCCCC2)n1	–	4.1	–
CC1CCN(C(=O)C2CCN(c3cc(N4CCOCC4)ncn3)CC2)CC1	15.6 (≈ 5.83 µg/mL)	6	–
O=C(C1CCN(c2nnc(-n3cccc3)s2)CC1)N1CCC(Cc2ccccc2)CC1	4 (≈ 1.74 µg/mL)	7.3	solubility kinetic at 1 h [3]: < 1 µM
CN1CCN(c2cc(N3CCC(C(=O)N4CCC(Cc5ccccc5)CC4)CC3)ncn2)CC1	125 (≈ 57.8 µg/mL)	4.7	–
FC1(F)CCN(c2cc(N3CCOCC3)ncn2)C1	–	4.1	–
O=C(C1CCN(c2cc(N3CCOCC3)ncn2)CC1)N1CCC(Oc2ccc(Cl)cc2F)CC1	0.5 (≈ 0.252 µg/mL)	7.7	–
Nc1nc(N2CCOCC2)cc(N2CCC(C(=O)N3CCC(Cc4ccccc4)CC3)CC2)n1	3.5 (≈ 1.63 µg/mL)	7.3	–
O=C(C1CCN(c2nccc(N3CCCCC3)n2)CC1)N1CCC(Cc2ccccc2)CC1	16 (≈ 7.16 µg/mL)	6.8	–
O=C(C1CCN(c2cc(N3CCOCC3)ncn2)CC1)N1CCCCC1Cc1ccccc1 (stereo not drawn)	125 (≈ 56.2 µg/mL)	5.4	–
O=C(c1ccc(F)cc1)N1CCN(C(=O)C2CCN(c3cc(N4CCOCC4)ncn3)CC2)CC1	> 80	4.6	–
O=C(C1CCN(c2cc(N3CCOCC3)ncn2)CC1)N1CCC(CCN2CCCC2)CC1	> 125	4.1	–
CC(=O)N1CCC(C(=O)N2CCC(C)CC2)CC1	–	< 3	–
O=C(C1CCN(c2cc(N3CCOCC3)ncn2)CC1)N1CCC(Cc2ccccc2)C1 (stereo not drawn)	4 (≈ 1.74 µg/mL)	6.9	–
c1nc(N2CCCCC2)cc(N2CCOCC2)n1	–	4.1	–
O=C(C1CCN(c2cc(N3CCOCC3)ncn2)CC1)N1CCC(Oc2ccc(F)cc2F)CC1	1 (≈ 0.488 µg/mL)	7.5	–
O=C(C1CCN(c2cc(N3CCOCC3)ncn2)CC1)N1CCC(Oc2ccc(Cl)cc2)CC1	1.5 (≈ 0.729 µg/mL)	7.5	–
CC1(C)CCCN(c2cc(N3CCOCC3)ncn2)C1	–	4.6	–
c1nc(N2CCCCCC2)cc(N2CCOCC2)n1	–	< 4	–
CC(C)N(C)c1cc(N2CCOCC2)ncn1	–	< 4	–
O=C(C1CCN(c2cc(N3CCOCC3)ncn2)CC1)N1CCCC(Cc2ccccc2)C1 (stereo not drawn)	32 (≈ 14.4 µg/mL)	6.2	–

SMILES	MIC90 [1] [µM]	pIC50 [2]	further results
O=C(C1CCN(c2cc(N3CCOCC3)ncn2)CC1)N1CCC(Cc2ccccn2)CC1	8.8 (≈ 3.97 µg/mL)	6.6	–
CCN(CC)CCC1CCN(C(=O)C2CCN(c3cc(N4CCOCC4)ncn3)CC2)CC1	> 125	< 4	–
c1nc(N2CCOCC2)cc(N2CCC3(CCCO3)CC2)n1	–	4.1	–
O=c1nc(N2CCOCC2)cc(N2CCCCC2)[nH]1	–	4.5	–
CC1CCN(C(=O)C2CCN(c3cc(NC4CCCC4)ncn3)CC2)CC1	> 125	4.7	–
CC(C)C1CCN(C(=O)C2CCN(c3cccc(N4CCOCC4)n3)CC2)CC1	> 125	5	–
O=C(C1CCN(c2cc(N3CCOCC3)ncn2)CC1)N1CCC(Cc2cccnc2)CC1	3.3 (≈ 1.49 µg/mL)	7	–
CC1CCN(C(=O)C2CCN(c3cc(N4CCCC4)ncn3)CC2)CC1	23.4 (≈ 8.37 µg/mL)	5.9	–
CC(C)C1CCN(C(=O)C2CCN(c3ccnc(N4CCOCC4)c3)CC2)CC1	> 125	5.1	–
CC(C)C1CCN(C(=O)C2CCN(c3cc(N4CCOCC4)ccn3)CC2)CC1	> 125	5.2	–
CC1CCN(C(=O)C2CCN(c3cc(N4CCCCC4)ncn3)CC2)CC1	15.6 (≈ 5.8 µg/mL)	6.5	solubility kinetic at 1 h [3]: > 488 µM
O=C(C1CCN(c2cncc(N3CCOCC3)n2)CC1)N1CCC(Cc2ccccc2)CC1	3 (≈ 1.35 µg/mL)	7.4	–
CC(=O)N1CCC(C(=O)N2CCC(Cc3ccccc3)CC2)CC1	–	< 4	–
CC(C)C1CCN(C(=O)C2CCN(c3cc(N4CCOCC4)ncn3)CC2)CC1	4 (≈ 1.61 µg/mL)	7.1	–
O=C(C1CCN(c2cc(N3CCOCC3)ncn2)CC1)N1CCC(Oc2ccc(F)cc2)CC1	1.7 (≈ 0.798 µg/mL)	7.3	MIC90 [4]: 62 µM (≈ 29.1 µg/mL); Vd [5]: 1.7 L/kg; ED99 [6]: 29 mg/kg; MIC90 [7]: 0.62 µM (≈ 0.291 µg/mL); bioavailability [8]: 78.7%; solubility kinetic at 1 h [3]: ≥ 364 µM; clearance [9]: 23.5 mL/min/kg; half-life [10]: 60 min; IC50 [11]: 31.6 µM; solubility [12]: 74 µM (≈ 34.7 µg/mL)
O=C(C1CCN(c2cc(N3CCOCC3)ncn2)CC1)N1CCC(O)(Cc2ccccc2)CC1	10 (≈ 4.66 µg/mL)	5.8	–
CN(C)c1cc(N2CCCCC2)ncn1	–	3.9	–
O=C(C1CCN(c2cc(N3CCOCC3)ncn2)CC1)N1CCN(c2ccc(F)cc2)CC1	20 (≈ 9.09 µg/mL)	6.2	–
O=C(C1CCN(c2cc(N3CCOCC3)ncn2)CC1)N1CCOC(Cc2ccccc2)C1 (stereo not drawn)	> 125	5.2	–
O=C(C1CCN(c2cc(N3CCOCC3)ncn2)CC1)N1CCC(CC2CCCC2)CC1	3 (≈ 1.32 µg/mL)	7.6	–
CC1CCN(C(=O)C2CCN(c3cc(N(C)C)ncn3)CC2)CC1	125 (≈ 41.4 µg/mL)	5	–
O=C(C1CCN(c2cc(N3CCCCC3)ncn2)CC1)N1CCC(Cc2ccccc2)CC1	2.5 (≈ 1.12 µg/mL)	7.1	solubility kinetic at 1 h [3]: 28 µM (≈ 12.5 µg/mL)
CC(=O)N1CCN(c2cc(N3CCOCC3)ncn2)CC1	–	< 4	–
O=C(C1CCN(c2cc(N3CCCCC3)ncn2)CC1)N1CCCCC1	35.6 (≈ 12.7 µg/mL)	5.8	solubility kinetic at 1 h [3]: > 405 µM
O=C(C1CCN(c2cc(N3CCOCC3)ncn2)CC1)N1CCc2ccccc2C1	10 (≈ 4.08 µg/mL)	6.5	–
O=C(C1CCN(c2cc(N3CCOCC3)ncn2)CC1)N1CCC(Cc2ccccc2)CC1	0.6 (≈ 0.27 µg/mL)	7.6	MIC90 [4]: > 16 µM; MIC90 [7]: 0.07 µM (≈ 0.0315 µg/mL); solubility kinetic at 1 h [3]: 280 µM (≈ 126 µg/mL); MIC [13]: > 128 µg/mL; MIC [14]: > 128 µg/mL
CCC1CCN(C(=O)C2CCN(c3cc(N4CCOCC4)ncn3)CC2)CC1	8 (≈ 3.1 µg/mL)	6.8	–
